From patent US20250382298A1, “NITROGEN-CONTAINING COMPOUND AND USE THEREOF” (SUZHOU GENHOUSE BIO CO., LTD., priority 2022, published 2025)
Where two headings read alike, the source gives them in different places.

What was measured:
[1] = molecular target: cytochrome oxidase P450 2D6 (Homo sapiens (Human), UniProt P10635); assay: Inhibition of cytochrome oxidase P450 2D6; format: in vitro ADME; conditions: liver microsomes, CYP2D6
[2] = molecular target: cytochrome oxidase P450 3A4 (Homo sapiens (Human), UniProt P08684); assay: Inhibition of cytochrome oxidase P450 3A4 (Midazolam); format: in vitro ADME; conditions: liver microsomes, CYP3A4, Midazolam
Chain of cytochrome oxidase P450 3A4 (P08684 whole entry): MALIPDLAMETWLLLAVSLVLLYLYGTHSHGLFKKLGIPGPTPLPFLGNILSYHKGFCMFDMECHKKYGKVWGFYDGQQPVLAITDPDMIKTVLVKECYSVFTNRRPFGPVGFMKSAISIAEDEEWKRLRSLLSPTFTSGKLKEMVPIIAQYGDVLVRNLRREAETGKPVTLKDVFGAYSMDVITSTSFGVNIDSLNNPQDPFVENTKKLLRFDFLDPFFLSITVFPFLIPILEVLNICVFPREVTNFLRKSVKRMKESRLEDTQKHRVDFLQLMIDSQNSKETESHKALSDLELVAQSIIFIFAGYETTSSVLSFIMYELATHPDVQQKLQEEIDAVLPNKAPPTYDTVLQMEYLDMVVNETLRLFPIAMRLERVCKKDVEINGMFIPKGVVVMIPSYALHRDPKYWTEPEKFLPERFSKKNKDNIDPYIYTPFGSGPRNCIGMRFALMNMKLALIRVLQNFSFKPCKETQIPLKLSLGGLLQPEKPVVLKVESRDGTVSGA

KIF18A = KIF18A (Homo sapiens (Human), UniProt Q8NI77); assay: KIF18A enzymatic activity inhibition, ADP-Glo kit; format: biochemical; conditions: 4 nM KIF18A, 30 μM ATP
Chain of KIF18A (Q8NI77 1-467): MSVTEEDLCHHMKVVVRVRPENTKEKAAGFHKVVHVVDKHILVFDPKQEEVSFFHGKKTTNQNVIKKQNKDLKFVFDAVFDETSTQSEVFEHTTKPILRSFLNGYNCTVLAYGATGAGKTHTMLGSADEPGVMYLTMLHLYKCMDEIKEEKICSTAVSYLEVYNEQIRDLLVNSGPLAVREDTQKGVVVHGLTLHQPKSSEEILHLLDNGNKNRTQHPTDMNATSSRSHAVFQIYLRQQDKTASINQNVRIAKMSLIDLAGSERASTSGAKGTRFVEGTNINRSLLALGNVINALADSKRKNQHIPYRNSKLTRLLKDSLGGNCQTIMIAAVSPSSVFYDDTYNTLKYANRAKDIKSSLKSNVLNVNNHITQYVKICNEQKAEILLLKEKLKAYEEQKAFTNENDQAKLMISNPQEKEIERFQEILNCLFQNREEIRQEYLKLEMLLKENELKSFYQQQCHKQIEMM
Summary of the method: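 KIF18A (1467) at 4 nM was preincubated with compound for 20 min at 37 °C in 15 mM Tris pH 7.5, 10 mM MgCl2, 0.01% Pluronic F-68. The reaction was started with 30 μM ATP and ran 15 min at room temperature.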

[3] = Pharmacokinetic test in mice; format: in vivo; conditions: BALB/c mice; for AUC / Cmax / half-life: mouse, plasma; for half-life: read-out: t½ (converted)
Experimental: In this example, the pharmacokinetic behavior of the compounds after intravenous injection (IV) and intragastric (PO) administration in BALB/c mice was tested.
On the day of administration, mice were weighed for actual body weight and the administration volume was calculated. Each compound was tested in two groups with 9 mice in each group; one group was subjected to administration by single intravenous injection, and the other group of mice was subjected to single intragastric administration. Whole blood samples were collected via the orbit at prescribed time points (0.25 h, 0.5 h, 1 h, 2 h, 4 h, 8 h, and 24 h after administration). After blood sample collection, the samples were immediately transferred to labeled commercial sample tubes containing K2-EDTA (0.85-1.15 mg), followed by centrifugation (3200×g, 4° C., 10 min) and plasma collection. The plasma was transferred to a pre-cooled centrifuge tube, frozen in dry ice, and then stored in an ultra-low temperature freezer at −60° C. or lower until the LC-MS/MS analysis.
Plasma concentrations were determined by the LC-MS/MS method. Plasma drug concentration data for the compounds were processed using a non-compartmental model in the WinNonlin Version 6.3 (Pharsight, Mountain View, CA) pharmacokinetic software. The relevant pharmacokinetic parameters were calculated by a linear-log trapezoidal method.

[4] = molecular target: cytochrome oxidase P450 2C19 (Homo sapiens (Human), UniProt P33261); assay: Inhibition of cytochrome oxidase P450 2C19; format: in vitro ADME; conditions: liver microsomes, CYP2C19
Chain of cytochrome oxidase P450 2C19 (P33261 whole entry): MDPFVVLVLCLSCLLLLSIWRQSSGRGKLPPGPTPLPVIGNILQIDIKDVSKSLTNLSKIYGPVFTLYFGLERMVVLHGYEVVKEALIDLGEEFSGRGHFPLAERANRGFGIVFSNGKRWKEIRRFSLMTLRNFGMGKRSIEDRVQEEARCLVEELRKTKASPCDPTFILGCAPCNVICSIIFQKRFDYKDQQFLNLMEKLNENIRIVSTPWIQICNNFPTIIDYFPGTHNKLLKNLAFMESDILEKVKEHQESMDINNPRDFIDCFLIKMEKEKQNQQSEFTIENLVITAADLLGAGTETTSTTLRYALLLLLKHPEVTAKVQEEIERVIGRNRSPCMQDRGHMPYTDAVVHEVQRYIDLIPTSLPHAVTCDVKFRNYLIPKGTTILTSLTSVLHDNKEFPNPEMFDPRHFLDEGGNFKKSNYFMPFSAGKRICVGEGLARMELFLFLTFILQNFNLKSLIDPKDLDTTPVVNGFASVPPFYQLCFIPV

[5] = Stability test in human liver microsomes; format: in vitro ADME, humans; conditions: human liver microsomes 0.5 mg/mL, 1.0 μM substrate; for CLint scaled at 1 μM / half-life at 1 μM: pH 7.4; for CLint scaled at 1 μM: read-out: HLM 0.5 CLint(liver); for half-life at 1 μM: read-out: HLM 0.5 T½
Experimental: The phase I metabolic stability of the compounds in liver microsomes of CD-1 mice, Sprague-Dawley rats, beagle dogs, cynomolgus monkeys, and humans was assessed.
The animal and human liver microsomes used in the test system were purchased from Xenotech, Corning, or other qualified suppliers and stored in a freezer at a temperature below −60° C. prior to use.
The test samples and control compounds were separately incubated with animal and human liver microsomes at 37±1° C. for a period of incubation time up to 60 min. The samples were removed at the indicated time points, and the reaction was stopped with acetonitrile or another organic solvent containing an internal standard. After centrifugation, the resulting supernatants were assayed by the liquid chromatography-tandem mass spectrometry (LC-MS/MS) method.
73.21 g of dipotassium hydrogen phosphate trihydrate and 10.78 g of potassium dihydrogen phosphate were dissolved in 4000 mL of ultrapure water. The solution was adjusted to pH 7.40±0.10 with 10% phosphoric acid or 1 M potassium hydroxide to make a final concentration of 100 mM.
The test sample powder was prepared into a stock solution at a certain concentration with DMSO or another organic solvent, which was then further diluted with a suitable organic solvent.
Microsomes of each species were diluted into a 2× working solution with a 100 mM potassium phosphate buffer. The final concentration of the microsomes in the reaction system was 0.5 mg/mL.
An appropriate amount of nicotinamide adenine dinucleotide phosphate (NADP) and isocitric acid (ISO) powder was weighed out, dissolved in a magnesium chloride solution, and shaken and mixed well. An appropriate amount of isocitrate dehydrogenase (IDH) was added, and the mixture was mixed well by gently turning upside down. The final concentrations in the reaction system were: 1 mM NADP, 1 mM magnesium chloride, 6 mM ISO, and 1 unit/mL IDH.
The stop solution was prepared with acetonitrile or another organic solvent containing an internal standard (tolbutamide or another suitable compound). The prepared stop solution was stored in a freezer at 2-8° C.
Incubation was performed in a 96-well plate. Eight incubation plates were prepared and designated T0, T5, T15, T30, T45, T60, Blank60, and NCF60, respectively. The first 6 plates corresponded to reaction time points of […], respectively. No test sample or control compound was added to the Blank60 plate, and samples were taken after 60 min of incubation. In the NCF60 plate, incubation was performed for 60 min using the potassium phosphate buffer instead of the NADPH regeneration system solution. Three replicates were made for samples in all conditions.
The microsomes and the test sample or control compound were mixed, and then the incubation plates Blank60, T5, T15, T30, T45, and T60 except for TO and NCF60 were placed in a 37° C. water bath for pre-incubation for about 10 min. In the incubation plate T0, a stop solution was first added, followed by addition of the NADPH regeneration system working solution, and 98 μL of the potassium phosphate buffer was added to each sample well of the incubation plate NCF60 to initiate the reaction. After the pre-incubation of the incubation plates Blank60, T5, T15, T30, T45, and T60 was completed, 98 μL of the NADPH regeneration system working solution was added to each sample well to initiate the reaction. The reaction temperature was 37±1° C., the final volume of the reaction was 200 μL, and the reaction system included 0.5 mg/mL microsomes, 1.0 μM substrate, 1 mM NADP, 6 mM ISO, and 1 unit/ml IDH.
At 5 min, 15 min, […], 45 min, and 60 min, a cold stop solution containing an internal standard was added to the reaction plate to stop the reaction.
All the reaction plates after the reaction was stopped were shaken well and centrifuged at 3220×g at 4° C. for 20 min. After the supernatant was diluted at a certain ratio, LC-MS/MS analysis was performed. […]

Chain of cytochrome oxidase P450 2D6 (P10635 whole entry): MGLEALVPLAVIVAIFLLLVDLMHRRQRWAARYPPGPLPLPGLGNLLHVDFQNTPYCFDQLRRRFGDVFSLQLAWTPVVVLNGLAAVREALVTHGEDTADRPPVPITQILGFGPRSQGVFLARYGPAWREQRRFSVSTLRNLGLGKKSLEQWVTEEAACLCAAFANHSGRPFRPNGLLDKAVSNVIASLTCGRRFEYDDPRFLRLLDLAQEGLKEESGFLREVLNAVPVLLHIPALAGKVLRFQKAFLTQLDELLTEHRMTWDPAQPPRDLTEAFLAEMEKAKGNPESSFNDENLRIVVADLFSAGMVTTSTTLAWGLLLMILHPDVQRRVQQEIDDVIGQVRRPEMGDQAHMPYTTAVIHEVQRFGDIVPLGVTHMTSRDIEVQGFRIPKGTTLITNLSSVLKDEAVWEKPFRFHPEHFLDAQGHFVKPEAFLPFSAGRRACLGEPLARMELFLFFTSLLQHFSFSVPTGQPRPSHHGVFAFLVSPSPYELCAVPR

Structure (SMILES) | IC50 [1] | IC50 [2] | IC50 (KIF18A) | F ([3]; PO @5mpk) | AUC ([3]; 5 mg/kg, PO @5mpk) | Cmax ([3]; 5 mg/kg, PO @5mpk) | half-life ([3]; 5 mg/kg, PO @5mpk) | IC50 [4] | CLint scaled at 1 μM [5] | half-life at 1 μM [5] | F ([3]; PO @30mpk) | AUC ([3]; 30 mg/kg, PO @30mpk) | Cmax ([3]; 30 mg/kg, PO @30mpk) | half-life ([3]; 30 mg/kg, PO @30mpk) | HLM 0.5 CLint(liver) [5] | HLM 0.5 T½ [5]
O=C(Nc1cc2ccccc2c(N2CCC(F)(F)CC2)n1)c1ccc(NS(=O)(=O)CCO)cc1N1CCC2(CC1)CC2 [Compound 6] | > 10000 nM | > 10000 nM | 95.6 nM | 44% | 13.5 µM·h | 1.55 µM | 4.7 h | > 10000 nM | < 8.6 mL/min/kg | > 2.42 h | – | – | – | – | – | –
O=C(Nc1cc2ccsc2c(N2CCC(F)(F)CC2)n1)c1ccc(NS(=O)(=O)CCO)cc1N1CCC2(CC1)CC2 [Compound 15] | – | – | 126 nM | 79% | 17.8 µM·h | 1.77 µM | 3.4 h | – | < 8.6 mL/min/kg | > 2.42 h | – | – | – | – | – | –
CS(=O)(=O)Nc1ccc(C(=O)Nc2cn3ccnc3c(N3CCC(F)(F)CC3)n2)c(N2CC3CCC(C3)C2)c1 [Compound 19] | > 10000 nM | > 10000 nM | – | 101% | 58.3 µM·h | 3.92 µM | 14.9 h | > 10000 nM | 11.6 mL/min/kg | 1.79 h | 92% | 320 µM·h | 15.3 µM | 16.5 h | – | –
O=C(Nc1cn2ccnc2c(N2CCC(F)(F)CC2)n1)c1ccc(NS(=O)(=O)CCO)cc1N1CCC2(CC1)CC2 [Compound 8] | > 10000 nM | > 10000 nM | 21.3 nM | 97% | 6.87 µM·h | 1.61 µM | 1.2 h | > 10000 nM | < 8.6 mL/min/kg | > 2.42 h | – | – | – | – | – | –
CS(=O)(=O)Nc1ccc(C(=O)Nc2cn3ccnc3c(N3CCC(F)(F)CC3)n2)c(N2CCC3(CC2)CC3)c1 [Compound 10] | – | – | 25.7 nM | – | – | – | – | – | < 8.6 mL/min/kg | > 2.42 h | – | – | – | – | – | –
O=C(Nc1cn2ccnc2c(N2CCC(F)(F)CC2)n1)c1ccc(NS(=O)(=O)CCO)cc1N1CC2CCC(C2)C1 [Compound 17] | – | – | 16.4 nM | 116% | 13.3 µM·h | 2.69 µM | 3.3 h | – | – | – | – | – | – | – | – | –
O=C(Nc1cc2c(c(N3CCC(F)(F)CC3)n1)COC2)c1ccc(NS(=O)(=O)CCO)cc1N1CCC2(CC1)CC2 [Compound 14] | – | – | 28.7 nM | – | – | – | – | – | 22.3 mL/min/kg | 0.933 h | – | – | – | – | – | –
CS(=O)(=O)Nc1ccc(C(=O)Nc2cc3cc[nH]c3c(N3CCC(F)(F)CC3)n2)c(N2CCC3(CC2)CC3)c1 [Compound 47] | 2240 nM | 240 nM | – | – | – | – | – | 980 nM | 14.3 mL/min/kg | 2.02 h | – | – | – | – | – | –
O=C(Nc1cn2c(F)cnc2c(N2CCC(F)(F)CC2)n1)c1ccc(NS(=O)(=O)CCO)cc1N1CCC2(CC1)CC2 [Compound 34] | > 10000 nM | > 10000 nM | – | 257% | 70.1 µM·h | 6.39 µM | 3.7 h | > 10000 nM | 1.9 mL/min/kg | 15.3 h | 147% | 220 µM·h | 15.2 µM | 9.6 h | – | –
O=C(Nc1cn2ncnc2c(N2CCC(F)(F)CC2)n1)c1ccc(NS(=O)(=O)CCO)cc1N1CCC2(CC1)CC2 [Compound 23] | – | – | 3.6 nM | – | – | – | – | – | < 8.6 mL/min/kg | > 2.42 h | – | – | – | – | – | –
O=C(Nc1cn2cnnc2c(N2CCC(F)(F)CC2)n1)c1ccc(NS(=O)(=O)CCO)cc1N1CCC2(CC1)CC2 [Compound 24] | – | – | 3.7 nM | – | – | – | – | – | – | – | – | – | – | – | 9.4 mL/min/kg | 2.22 h
O=C(Nc1cc2cc[nH]c2c(N2CCC(F)(F)CC2)n1)c1ccc(NS(=O)(=O)CCO)cc1N1CCC2(CC1)CC2 [Compound 22] | – | – | 26.4 nM | – | – | – | – | – | – | – | 218% | 79.8 µM·h | 14.6 µM | 10 h | – | –
O=C(Nc1cc2cccnc2c(N2CCC(F)(F)CC2)n1)c1ccc(NS(=O)(=O)CCO)cc1N1CCC2(CC1)CC2 [Compound 21] | > 10000 nM | > 10000 nM | – | 107% | 60.9 µM·h | 4.17 µM | 4 h | > 10000 nM | < 8.6 mL/min/kg | > 2.42 h | 61% | 207 µM·h | 15.3 µM | 5.4 h | – | –
Cc1cc(NC(=O)c2ccc(NS(=O)(=O)CCO)cc2N2CC3CCC(C3)C2)nc(N2CCC(F)(F)CC2)n1 [Compound 3] | – | – | 19.8 nM | 87% | 74.8 µM·h | 4.25 µM | 44.5 h | – | – | – | – | – | – | – | – | –
